From patent publication US7033810B2, “Sitosterolemia susceptibility gene (SSG): compositions and methods of use” (Amgen Inc., priority 2000, dated 2006)

Key:
human ABC1 = assay: Northern blot, ABC1 expression in Caco-2 cells; format: cell-based; details: Human Caco-2 cells
Protocol: (§1) Human Caco-2 cells were treated with Compounds B and C. Northern blot analysis was performed (essentially as described above) using human ABC1 and ABC8 cDNA probes.

human ABC8 = assay: Northern blot, ABC8 expression in Caco-2 cells; format: cell-based; details: Human Caco-2 cells
Protocol: as §1

ABC1 mRNA = assay: Northern blot of ABC1 mRNA in tissues of treated mice; format: in vivo, C57BL/6 mouse; details: 0, 1, 5 and 50 mg/kg
Protocol: (§2) Total RNA was prepared from untreated (control) and treated (0, 1, 5 and 50 mg/kg of LXRa agonist Compound A) C57BL/6 mouse liver, intestine and kidney. RNA was electrophoresed on 1.2% agarose/formaldehyde gels, transferred to nylon membrane (Ambion, Bright Star), hybridized to ^32P-labeled murine ABC-1, apolipoprotein AI, and GAPDH cDNA probes, washed and subjected to autoradiography.

Caco-2 cells = assay: [3H]-cholesterol efflux from Caco-2 cells; format: cell-based, human; details: 1 μM, 24 h treatment; efflux media with apolipoprotein AI 10 ug/ml; 8 and 24 hour time points
Protocol: Caco2 cells (an adenocarcinoma cell line derived from human colon) were plated in 6 well plates at 50-60% confluence and allowed to adhere overnight in DMEM containing 10% FBS, non-essential amino acids, and Pen/Strep. On the second day, cells were labeled for 24 h with [^3H]-cholesterol (0.5 μCi/ml in DMEM and 1% BSA, Pen/Strep). Cells were washed (2×) with PBS and DMEM (1% BSA) with or without the addition of Compound A (1 μM final concentration). After 24 h treatment, cells were washed (2× with PBS) and efflux media was added containing purified apolipoprotein AI (10 ug/ml). Cells and media were harvested at 8 and 24 hour time points. Cells were washed 3× with PBS, and lysed with 300 μl of 0.5 M NaOH. Radioactivity in media and cell lysates were scintillation counted and normalized to cell protein (using BioRad Lowry Kit). Efflux data shown in is presented as CPM (media)/mg cell protein (FIG. 4).

GAPDH mRNA = assay: Northern blot of GAPDH mRNA in tissues of treated mice; format: in vivo, C57BL/6 mouse; details: liver, intestine and kidney; 0, 1, 5 and 50 mg/kg
Protocol: as §2

apolipoprotein AI mRNA = assay: Northern blot of apolipoprotein AI mRNA in tissues of treated mice; format: in vivo, C57BL/6 mouse; details: liver, intestine and kidney; 0, 1, 5 and 50 mg/kg
Protocol: as §2

SSG mRNA = assay: Northern blot of SSG mRNA in tissues of treated mice; format: in vivo, C57BL/6 mouse; details: 0, 1, 5 and 50 mg/kg
Protocol: as §2, with “SSG” for “ABC-1, apolipoprotein AI, and GAPDH”, “probe,” for “probes,”

[1] = test system: EST clone AA237916 (murine SSG); assay: GEM analysis, EST clone AA237916; format: in vivo, C57BL/6 mouse
Protocol: Total RNA was prepared from untreated (control) and treated (50 mg/kg of LXRα agonist Compound A) C57BL/6 mouse liver, intestine and kidney. Control and treated RNA samples were used to generate separate pools of unique, fluorescently labeled cDNA probes (performed at Incyte Genomics Inc.). Each (two fluorescent probe) tissue sample was simultaneously applied to a single Incyte Mouse GEM™ 1 microarray where they were competitively reacted with the arrayed cDNA molecules (containing 8,734 cDNA elements). The intensity of the fluorescence at each array element is proportional to the expression level of that particular gene in the sample. Each element of the GEM™ microarray was scanned for the first fluorescent color, and then repeated for the second fluorescent label. The ratio of the two fluorescent intensities provided a quantitative measurement of the relative gene expression level in the two samples. […] A portion of that composite is shown in Table 2, which lists genes having the highest relative expression levels in the treated intestine and their corresponding relative expression levels in liver and kidney. […] One EST in particular, corresponding to Accession Number AA237916, and shown in the first row of Table 2, was selected for further analysis, in part based on its similarity to the Drosophila Brown protein, a member of the ABC superfamily. […]

Compound	human ABC1 expression (Northern blot) (human ABC1)	human ABC8 expression (Northern blot) (human ABC8)	ABC1 mRNA (ABC1 mRNA; intestine)	ABC1 mRNA (ABC1 mRNA; kidney)	ABC1 mRNA (ABC1 mRNA; liver)	cholesterol efflux (Caco-2 cells)	GAPDH mRNA levels (GAPDH mRNA)	apolipoprotein AI mRNA levels (apolipoprotein AI mRNA)	SSG expression (mRNA, Northern blot) (SSG mRNA; intestine)	SSG expression (mRNA, Northern blot) (SSG mRNA; liver)	induction of EST clone AA237916 (murine SSG) ([1]; intestine of treated mice)	induction of EST clone AA237916 (murine SSG) ([1]; liver of treated mice)
CN(c1ccc(C(O)(C(F)(F)F)C(F)(F)F)cc1)S(=O)(=O)c1ccccc1 [B]	induced	induced										
CC(c1ccco1)N(C(=O)C12CC3CC(CC(C3)C1)C2)c1ccccn1 (centres unmarked) [C]	induced	induced										
O=S(=O)(c1ccccc1)N(CC(F)(F)F)c1ccc(C(O)(C(F)(F)F)C(F)(F)F)cc1 [Compound A]			Dose dependent increases	Dose dependent increases	Dose dependent increases	Stimulates Cholesterol Efflux	no measurable difference	no measurable difference	induced	induced	2.5 fold	2.4 fold
